One data set concerns human DNMT1. The data set can be described thus: ELISA EpiQuik DNA methyltransferase (DNMT) activity/inhibitor assay. The format is biochemical. Particulars: 200 nM purified DNMT1, EpiQuik kit; for Inh% at 50 μM: 50 μM compound; for Inh% at 100 μM: 100 μM compound. Here is the method:
(§1) All the compounds were first screened using an ELISA EpiQuik DNA methyltransferase (DNMT) activity/inhibitor assay kit (Epigentek). To measure the effects of the compounds on human DNMT1 activity, 200 nM purified DNMT1 was incubated with 50 µM and 100 µM of the different compounds and S-adenosylmethionine in the DNMT assay buffer in the assay plate at 37 °C for 2 h[36]. Next, every sample was incubated with the capture and detection antibody, followed by incubation with developer solution for 10 min at room temperature. The absorbance was measured at 450 nm using a POLARstar Omega microplate reader (BMG). S-Adenosylhomocysteine (AdoHcy) was used as a positive control. Methylation inhibition assays for EZH2, LSD, and G9a were performed in modified Tris, pH 9.0, buffer using AlphaLisa technology. An amount of 10 µL of the reaction system contained a corresponding concentration of SAM (Sigma) (EZH2 50 µM, LSD 50 µM, and G9a 50 µM), which was the Km value in each enzymatic reaction, plus 100 nM biotinylated peptide H3 (1–21) (synthesis by GLChina) and the relevant enzyme concentration (0.03 nM EZH2, 0.03 nM LSD, and 0.03 nM G9a). The proteins were preincubated with various compound concentrations for 15 min at room temperature before the substrate and SAM were added. After 60 min of incubation at room temperature, acceptor and donor AlphaLisa beads were added according to the manufacturer’s recommendations. The signals were read in Alpha mode with an EnSpire multimode plate reader (PerkinElmer). IC50 values were derived by fitting the data for the inhibition percentage to a dose-response curve by non-linear regression in GraphPad Prism 5.0[20].
DNMT1 inhibition test was performed on 30 candidates to verify their biochemical activities. The EpiQuik DNA methyl-transferase (DNMT) activity/inhibitor assay kit (Epigentek) was used to identify the activity of synthetic compounds.

For the next data set, the target named is DNMT1 (Homo sapiens, UniProt P26358). Description: H3-labelled radioactive methylation assay. It counts as biochemical. The note with it: H3-labeled radioactive methylation assay; 40 nM DNMT1. Here is the method: The DNMT1 radioactive methylation inhibition assays were performed in 30 µL reactions containing 0.1 µM adenosyl-L-methionine S-[methyl-^3H] (^3H-SAM, ^15 Ci/mmol, PerkinElmer), 0.25 µg/mL poly (dI-dC)·poly (dI-dC) (Sigma), 40 nM DNMT1 in 50 mM Tris-HCl, pH 8.0, 1 mM DTT, 5% glycerol, and 100 µg/mL BSA. The proteins were preincubated with a range of compound concentrations for 15 min at room temperature before adding the substrate and [^3H] SAM. After 60 min of incubation at 37 °C, the reaction systems were transferred to a MultiScreen HTS filter plate (Millipore), and the plate was washed 3 times with doubly distilled H2O via a vacuum. The radioactivity was determined by liquid scintillation counting (MicroBeta, PerkinElmer). IC50 values were derived by fitting the data for the inhibition percentage to a dose-response curve by non-linear regression in GraphPad Prism 5.0.
To quantitatively analyse DNMT1 inhibitory effect, the H^3-labelled radioactive methylation assay was conducted to measure the methyltransferase activity of DNMT1 at a range of concentrations for these compounds.

A short description of the next data set: PK study in SD rats. The note with it: rat, plasma, SD male rats; for AUC(0-t) / Tmax / half-life: mean ± SD (n = 3); for bioavailability: p.o. 10 mg/kg vs i.v. 2 mg/kg, F = (AUC p.o. × Dose i.v.)/(AUC i.v. × Dose p.o.) × 100%. It counts as in vivo. The method, then:
In vivo pharmacokinetic properties of WK-22, WK-23, WK-27, and DC_517 were performed by Medicilon Company, Shanghai, China. SPF-grade SD male rats (8 groups, n = 3 rats per group) with a body weight of 230–260 g were purchased from Shanghai SIPPR-BK LAB Animal Ltd., Shanghai, China, and used for the pharmacokinetic analysis of the tested compounds. All animals were deprived of food overnight after the cannulation surgery. Subsequently, the tested compounds WK-23 and DC_517 were dissolved/suspended in 5% DMSO, 10% Solutol, and 85% water, and the tested compounds WK-22 and WK-27 were dissolved/suspended in 5% DMSO, 40% PEG400, and 55% saline for intravenous administration (i.v.) and oral administration (p.o.), respectively. A final dosage of 2.0 and 10.0 mg/kg rat of the formulated compounds was administered for i.v. and p.o. purposes, respectively, and the blood samples were taken at various time points during a 24 h period. At different time points, blood samples were collected from the femoral vein. The plasma samples were obtained after centrifugation (6800 g, 6 min, 2–8 °C) and stored at −80 °C until the assay. The AUC (area under concentration-time curve) was calculated through the trapezoidal rule with extrapolation to time infinity. The concentration of the compounds in the blood was analysed by LC-MS/MS (Shimadzu liquid chromatographic system and SCIEX Triple Quad 5500+ mass spectrometer, Applied Biosystems, Ontario, Canada). The Tmax, T1/2, and Cmax value was obtained through visual inspection of the plasma concentration-time curve. The Vss value was generated from DAS 3.2.8 software. The F value of WK-23 was calculated with the formula: F = (AUC p.o. × Dose i.v.)/(AUC i.v. × Dose p.o.) × 100%.

In another data set the test system is DNMT3A/3L. The data set can be described thus: Methyltransferase enzymatic selectivity profiling, DNMT3A/3L. It counts as biochemical. The note with it: 1 - selected enzyme inhibition/DNMT1 inhibition; 50 µM. The method, then: (§2) In addition to DNMT1, there are many other methyltransferases that can bind with S-adenosyl-L-methionine (SAM) to facilitate transmethylation reactions[24]^,[25]. To investigate the selectivity of these potent compounds for DNMT1, we then evaluated the inhibitory activities against DNMT1 and other important methyltransferases at the concentration of 50 µM, including DNMT3A/3L, DNMT3B/3L, and other SAM-dependent enzymes[1]^,[2]^,[26], such as EZH2[27], LSD1[28], G9a (histone H3 lysine 9 methyltransferase)[29].
(§3) Here, the selectivity of non-nucleoside DNMT1 inhibitors is somewhat predictable because other methyltransferases mentioned above catalyse different substrates and share very low homology with DNMT1, even in their catalytic domain[30–32]. Subsequently, the screened compounds were evaluated in a dose-dependent assay against HCT116 (human colon cancer cell line) and A549 (human lung carcinoma cell line).
(§4) 493 Relative selectivity index
(§5) 494 Relative selectivity index of DNMT1 is calculated by formula: DNMT1-selectivity
(§6) 495 index =1 - selected enzyme inhibition/DNMT1 inhibition. The closer
(§7) 496 that this value is to 1 or even more than 1, the better DNMT1-selectivity the of the
(§8) 498 Table S1. Relative selectivity index of DNMT1
Cpd. […]

The subject of the next data set is DNMT3B/3L. The data set can be described thus: Methyltransferase enzymatic selectivity profiling, DNMT3B/3L. Particulars: 1 - selected enzyme inhibition/DNMT1 inhibition; 50 µM. The format is biochemical. Here is the method: as §2, §3, §4, §5, §6, §7, §8
Cpd. […]

The subject of a further data set is EZH2. Description: Methylation inhibition assay (AlphaLisa), EZH2. Particulars: 50 µM; for Relative selectivity index of DNMT1 vs EZH2: 1 - selected enzyme inhibition/DNMT1 inhibition. The format is biochemical. The method, then:
as §1, §2, §4, §5, §6, §7, §8
Cpd. […]

In a further data set the test system is LSD1. Description: Methylation inhibition assay (AlphaLisa), LSD1. The format is biochemical. Particulars: 1 - selected enzyme inhibition/DNMT1 inhibition; 50 µM. The method, then: as §1, §2, §4, §5, §6, §7, §8
Cpd. […]

Data set [1] relates to G9a (histone H3 lysine 9 methyltransferase). Description: Methylation inhibition assay (AlphaLisa), G9a. The format is biochemical. Particulars: 50 µM; for Relative selectivity index of DNMT1 vs G9a: 1 - selected enzyme inhibition/DNMT1 inhibition. Here is the method:
as §1, §2, §4, §5, §6, §7, §8
Cpd. […]

Sequence of DNMT1 (P26358 whole entry): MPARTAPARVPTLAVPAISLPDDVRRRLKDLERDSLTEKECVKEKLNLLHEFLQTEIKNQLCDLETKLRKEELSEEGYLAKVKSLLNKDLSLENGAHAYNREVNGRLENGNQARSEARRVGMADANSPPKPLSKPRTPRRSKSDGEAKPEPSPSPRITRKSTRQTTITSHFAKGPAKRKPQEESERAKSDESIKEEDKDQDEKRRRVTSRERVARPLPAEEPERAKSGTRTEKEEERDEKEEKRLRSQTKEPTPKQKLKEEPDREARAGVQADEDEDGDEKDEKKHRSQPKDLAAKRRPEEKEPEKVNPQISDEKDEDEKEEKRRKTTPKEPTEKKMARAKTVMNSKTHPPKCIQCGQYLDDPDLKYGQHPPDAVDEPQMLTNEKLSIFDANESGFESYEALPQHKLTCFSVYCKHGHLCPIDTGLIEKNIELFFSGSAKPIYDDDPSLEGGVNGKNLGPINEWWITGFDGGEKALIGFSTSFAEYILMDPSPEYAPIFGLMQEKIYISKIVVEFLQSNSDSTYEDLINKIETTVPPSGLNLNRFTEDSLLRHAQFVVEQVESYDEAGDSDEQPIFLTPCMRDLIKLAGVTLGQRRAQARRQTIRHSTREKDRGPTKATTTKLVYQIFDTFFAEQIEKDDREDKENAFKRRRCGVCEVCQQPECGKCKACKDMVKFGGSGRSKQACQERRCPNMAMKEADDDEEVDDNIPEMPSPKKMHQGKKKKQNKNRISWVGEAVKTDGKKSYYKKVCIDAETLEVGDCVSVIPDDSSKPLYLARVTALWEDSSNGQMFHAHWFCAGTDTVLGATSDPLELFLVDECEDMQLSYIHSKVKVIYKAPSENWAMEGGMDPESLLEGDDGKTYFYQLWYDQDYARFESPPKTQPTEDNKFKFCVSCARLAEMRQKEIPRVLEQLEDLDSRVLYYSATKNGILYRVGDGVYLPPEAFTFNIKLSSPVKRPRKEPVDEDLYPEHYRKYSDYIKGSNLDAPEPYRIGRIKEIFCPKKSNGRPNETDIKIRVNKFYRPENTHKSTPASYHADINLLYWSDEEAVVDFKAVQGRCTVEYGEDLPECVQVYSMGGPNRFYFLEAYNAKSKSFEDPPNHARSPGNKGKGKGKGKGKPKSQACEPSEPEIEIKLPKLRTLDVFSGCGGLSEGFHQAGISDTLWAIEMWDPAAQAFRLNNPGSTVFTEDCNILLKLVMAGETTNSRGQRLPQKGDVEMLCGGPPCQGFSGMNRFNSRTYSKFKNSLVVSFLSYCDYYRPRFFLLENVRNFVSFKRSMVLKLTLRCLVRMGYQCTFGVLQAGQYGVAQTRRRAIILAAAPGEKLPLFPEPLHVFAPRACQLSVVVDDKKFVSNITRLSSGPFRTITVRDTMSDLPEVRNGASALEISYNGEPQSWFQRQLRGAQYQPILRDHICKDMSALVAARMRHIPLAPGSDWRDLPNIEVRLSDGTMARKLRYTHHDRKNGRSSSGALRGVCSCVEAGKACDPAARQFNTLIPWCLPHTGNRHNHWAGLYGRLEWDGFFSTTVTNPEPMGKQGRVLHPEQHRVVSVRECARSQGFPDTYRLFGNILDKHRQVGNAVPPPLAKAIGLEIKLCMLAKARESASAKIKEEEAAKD

With `OC(CNCCc1c[nH]c2ccccc12)COC(Cn1c2ccccc2c2ccccc21)Cn1c2ccccc2c2ccccc21` (centres unmarked) [DC_517, reference compound], in the data set with human DNMT1, the “Inh% at 50 μM” value worked out at 96% and the “Inh% at 100 μM” value was 98%. Also, the IC50 at DNMT1 stood at 2.3 µM. In “PK study in SD rats” (iv, i.v. (2 mg/kg)), the AUC(0-t) came to 1020 ± 60.9 ng·h/mL, the Tmax is 0.08 h and the half-life is 6.7 ± 0.2 h. In “PK study in SD rats” (po), this compound came in with a bioavailability of 38.7 ± 2.9%. Further, in “PK study in SD rats” (po, p.o. (10 mg/kg)), the AUC(0-t) is 2080 ± 113 ng·h/mL, the Tmax is 6 h and the half-life is 6.7 ± 0.9 h.
On to `Oc1ccc(CCNCC(O)Cn2c3ccccc3c3cc(F)ccc32)cc1` (centres unmarked) [WK-3, 4-(2-((3-(3-Fluoro-9H-carbazol-9-yl)-2-hydroxypropyl)amino)ethyl)phenol], for which the melting point fell in the range of 140 to 142 °C. Further, in the data set with human DNMT1, the “Inh% at 50 μM” value stood at 71% and the “Inh% at 100 μM” value is recorded as 79%. Further, the IC50 on DNMT1 was 27 µM.
Regarding `CC(CO)NCC(O)Cn1c2ccccc2c2cc(F)ccc21` (centres unmarked) [WK-7, 2-((3-(3-Fluoro-9H-carbazol-9-yl)-2-hydroxypropyl)amino)propan-1-ol], the melting point lay in the range of 119 to 121 °C. Further, in the data set on human DNMT1, the “Inh% at 50 μM” value is 67% and the “Inh% at 100 μM” value turned out to be 83%. Moreover, the IC50 on DNMT1 came to 9.6 µM.
Regarding `OC(CNCCc1ccc(F)cc1)Cn1c2ccc(F)cc2c2cc(F)ccc21` (centres unmarked) [WK-14, 1-(3,6-Difluoro-9H-carbazol-9-yl)-3-((4-fluorophenethyl)amino)propan-2-ol], the melting point was in the range of 114 to 116 °C. Moreover, in the data set on human DNMT1, the “Inh% at 50 μM” value stood at 79% and the “Inh% at 100 μM” value was determined as 84%. Also, the IC50 at DNMT1 turned out to be 6 µM.
In turn, `OC(CNCCc1ccccc1)Cn1c2ccc(F)cc2c2cc(F)ccc21` (centres unmarked) [WK-15, 1-(3,6-Difluoro-9H-carbazol-9-yl)-3-(phenethylamino)propan-2-ol] gave a melting point of 91 to 93 °C. Also, in the data set on human DNMT1, the “Inh% at 50 μM” value is 75% and the “Inh% at 100 μM” value was 82%. Further, the IC50 at DNMT1 came out at 7.7 µM.
`CC(O)CNCC(O)Cn1c2ccc(F)cc2c2cc(F)ccc21` (centres unmarked) [WK-18, 1-(3,6-Difluoro-9H-carbazol-9-yl)-3-((2-hydroxypropyl)amino)propan-2-ol] gave a melting point of 130 to 132 °C. Moreover, in the data set with human DNMT1, the “Inh% at 50 μM” value was found to be 70% and the “Inh% at 100 μM” value was 87%. Further, the IC50 on DNMT1 was found to be 10 µM.
`CC(C)(C)NCC(O)COC(Cn1c2ccccc2c2cc(F)ccc21)Cn1c2ccccc2c2cc(F)ccc21` (centres unmarked) [WK-25, 1-((1,3-Bis(3-fluoro-9H-carbazol-9-yl)propan-2-yl)oxy)-3-(tert-butylamino)propan-2-ol] came in with a melting point of 183 to 185 °C. In addition, in the data set with human DNMT1, the “Inh% at 50 μM” value stood at 100% and the “Inh% at 100 μM” value is 100%. Also, in the data set with DNMT3A/3L, the “Relative selectivity index of DNMT1 vs DNMT 3A/3L” value amounted to 0.94. Further, the “Relative selectivity index of DNMT1 vs DNMT 3B/3L” value in the data set on DNMT3B/3L is listed as 1.44. Also, the “Relative selectivity index of DNMT1 vs EZH2” value in the data set with EZH2 was 0.89. In the data set on LSD1, the “Relative selectivity index of DNMT1 vs LSD1” value is 0.02. Moreover, in [1], the “Relative selectivity index of DNMT1 vs G9a” value is 0.99.
In the case of `OC[C@H]1CN(CC(O)COC(Cn2c3ccccc3c3cc(F)ccc32)Cn2c3ccc(F)cc3c3cc(F)ccc32)CCN1` (stereo partly drawn) [WK-27, 1-((1-(3,6-Difluoro-9H-carbazol-9-yl)-3-(3-fluoro-9H-carbazol-9-yl)propan-2-yl)oxy)-3-((R)-3-(hydroxymethyl)piperazin-1-yl)propan-2-ol], the melting point was in the range of 150 to 152 °C. Moreover, in the data set with human DNMT1, the “Inh% at 50 μM” value came out at 100% and the “Inh% at 100 μM” value is recorded as 100%. Besides, in the data set with DNMT3A/3L, the “Relative selectivity index of DNMT1 vs DNMT 3A/3L” value worked out at 0.03. Besides, the “Relative selectivity index of DNMT1 vs DNMT 3B/3L” value in the data set with DNMT3B/3L worked out at 0.03. In addition, the “inhibitory activity against EZH2” value in the data set on EZH2 (Figure 3) is listed as “nearly no inhibitory activities”. Further, the “Relative selectivity index of DNMT1 vs EZH2” value with EZH2 is given as 0.9. Also, the “Relative selectivity index of DNMT1 vs LSD1” value in the data set with LSD1 is 0.05. For the same compound, the “inhibitory activity against G9a” value in data set [1] (Figure 3) is “nearly no inhibitory activities”. In addition, in data set [1], the “Relative selectivity index of DNMT1 vs G9a” value turned out to be 0.97. In the data set “PK study in SD rats” (iv, i.v. (2 mg/kg)), the AUC(0-t) amounted to 427 ± 60 ng·h/mL, the Tmax came out at 0.1 h and the half-life was 11.5 ± 1.2 h. The bioavailability in the data set “PK study in SD rats” (oral) amounted to 1.8%. The compound also displayed a bioavailability in “PK study in SD rats” (po) of 1.8 ± 1.9%. Further, in the data set “PK study in SD rats” (po, p.o. (10 mg/kg)), the AUC(0-t) was found to be 28.5 ± 40 ng·h/mL, the Tmax came to 2.7 ± 1.2 h and the half-life is 3.9 ± 2.5 h.

The record behind these values is publication PMC9186373, “Design, synthesis, and biological evaluation of novel carbazole derivatives as potent DNMT1 inhibitors with reasonable PK properties” (Journal of Enzyme Inhibition and Medicinal Chemistry, 2022).
